Experimental data reported in ChEMBL document CHEMBL3885861, “Open TG-GATES”.

Species: Rattus norvegicus
Test: Open TG-GATES - Regimen: Daily Repeat
Format: toxicity, organism-based, Sprague-Dawley
Design: regimen Daily Repeat, gender Male, age 6 weeks
Details: in vivo, po, 100 mg/kg, route gavage, dose level High; for APTT / Bas / Eos / Fbg / Hb / Ht / Lym / MCH / MCHC / MCV / Mono / Neu / PT / Plat / RBC / Ret / WBC: tissue Blood; for KIDNEY_TOTAL: tissue Kidney; for LIVER: tissue Liver; for A/G / ALP / ALT / AST / BUN / CRE / Ca / Cl / DBIL / GLC / IP / K / LDH / Na / PL / RALB / TBIL / TC / TG / TP / gamma-GTP: tissue Plasma

## CN(CCOc1ccc(CC2SC(=O)NC2=O)cc1)c1ccccn1.O=C(O)/C=C\C(=O)O (centres undefined) [ROSIGLITAZONE MALEATE]
72 h, time 3 day
  TERMINAL_BW: 241.9 g
  APTT: 16.1 s
  Bas: 0%
  Eos: 1%
  Fbg: 214 mg/dL
  Hb: 12 g/dL
  Ht: 36.4%
  Lym: 73.4%
  MCH: 21.1 pg
  MCHC: 33%
  MCV: 63.8 fL
  Mono: 7.2%
  Neu: 19.2%
  PT: 11.7 s
  Plat: 122 x10_4/uL
  RBC: 570.8 x10_4/ul
  Ret: 7.7%
  WBC: 111.2 x10_2/uL
  KIDNEY_TOTAL: 0.7 g
  LIVER: 12.3 g
  A/G: 2.5
  ALP: 1258 IU/L
  ALT: 44.4 IU/L
  AST: 74.2 IU/L
  BUN: 17.2 mg/dL
  CRE: 0.2 mg/dL
  Ca: 11.4 mg/dL
  Cl: 106.2 meq/L
  DBIL: 0.01 mg/dL
  GLC: 179.8 mg/dL
  IP: 8.1 mg/dL
  K: 4.1 meq/L
  LDH: 115.6 IU/L
  Na: 141.8 meq/L
  PL: 142.2 mg/dL
  RALB: 3.8 g/dL
  TBIL: 0.034 mg/dL
  TC: 77.6 mg/dL
  TG: 48 mg/dL
  TP: 5.4 g/dL
  gamma-GTP: 0 IU/L
[…], time 7 day
  TERMINAL_BW: 286.2 g
  APTT: 16.1 s
  Bas: 0%
  Eos: 1.2%
  Fbg: 195.8 mg/dL
  Hb: 11.6 g/dL
  Ht: 35.3%
  Lym: 74.6%
  MCH: 21.8 pg
  MCHC: 32.8%
  MCV: 66.4 fL
  Mono: 9.2%
  Neu: 15.4%
  PT: 12.2 s
  Plat: 111.4 x10_4/uL
  RBC: 530.8 x10_4/ul
  Ret: 7.7%
  WBC: 99 x10_2/uL
  KIDNEY_TOTAL: 0.8 g
  LIVER: 14.7 g
  A/G: 2.3
  ALP: 1176 IU/L
  ALT: 33 IU/L
  AST: 67.6 IU/L
  BUN: 20.8 mg/dL
  CRE: 0.5 mg/dL
  Ca: 11 mg/dL
  Cl: 105.6 meq/L
  DBIL: 0.014 mg/dL
  GLC: 178.8 mg/dL
  IP: 7.5 mg/dL
  K: 4 meq/L
  LDH: 77 IU/L
  Na: 142 meq/L
  PL: 135.4 mg/dL
  RALB: 3.8 g/dL
  TBIL: 0.034 mg/dL
  TC: 73.8 mg/dL
  TG: 43.4 mg/dL
  TP: 5.4 g/dL
  gamma-GTP: 0.4 IU/L
[…], time 14 day
  TERMINAL_BW: 351.2 g
  APTT: 16.1 s
  Bas: 0%
  Eos: 1%
  Fbg: 227 mg/dL
  Hb: 12.8 g/dL
  Ht: 38.9%
  Lym: 70.8%
  MCH: 20.8 pg
  MCHC: 32.8%
  MCV: 63.4 fL
  Mono: 10.4%
  Neu: 17.6%
  PT: 12 s
  Plat: 94.8 x10_4/uL
  RBC: 614.6 x10_4/ul
  Ret: 4.9%
  WBC: 108.6 x10_2/uL
  KIDNEY_TOTAL: 0.9 g
  LIVER: 16.3 g
  A/G: 2
  ALP: 1156 IU/L
  ALT: 36 IU/L
  AST: 68.2 IU/L
  BUN: 18.2 mg/dL
  CRE: 0.4 mg/dL
  Ca: 11 mg/dL
  Cl: 107.6 meq/L
  DBIL: 0.01 mg/dL
  GLC: 190.4 mg/dL
  IP: 7.4 mg/dL
  K: 3.8 meq/L
  LDH: 87.2 IU/L
  Na: 145.8 meq/L
  PL: 120 mg/dL
  RALB: 3.7 g/dL
  TBIL: 0.028 mg/dL
  TC: 69.4 mg/dL
  TG: 38.8 mg/dL
  TP: 5.5 g/dL
  gamma-GTP: 1 IU/L
[…], time 28 day
  TERMINAL_BW: 428.4 g
  APTT: 16.1 s
  Bas: 0%
  Eos: 1.2%
  Fbg: 220.8 mg/dL
  Hb: 12.9 g/dL
  Ht: 39.5%
  Lym: 77.4%
  MCH: 19.6 pg
  MCHC: 32.6%
  MCV: 60.2 fL
  Mono: 7.8%
  Neu: 13.4%
  PT: 12.1 s
  Plat: 87.6 x10_4/uL
  RBC: 657.8 x10_4/ul
  Ret: 3.2%
  WBC: 104 x10_2/uL
  KIDNEY_TOTAL: 0.9 g
  LIVER: 18.6 g
  A/G: 2.1
  ALP: 951 IU/L
  ALT: 29 IU/L
  AST: 59.2 IU/L
  BUN: 18.6 mg/dL
  CRE: 0.4 mg/dL
  Ca: 11 mg/dL
  Cl: 105 meq/L
  DBIL: 0.01 mg/dL
  GLC: 179.6 mg/dL
  IP: 6.2 mg/dL
  K: 3.9 meq/L
  LDH: 88.4 IU/L
  Na: 141.2 meq/L
  PL: 123.2 mg/dL
  RALB: 3.9 g/dL
  TBIL: 0.04 mg/dL
  TC: 74.8 mg/dL
  TG: 37.8 mg/dL
  TP: 5.8 g/dL
  gamma-GTP: 0 IU/L
